Laboratory results taken from PMC10895674, “First-in-Class Dual EZH2-HSP90 Inhibitor Eliciting Striking Antiglioblastoma Activity In Vitro and In Vivo” (Journal of Medicinal Chemistry, 2024).

Columns and labels:
EZH2 = EZH2 (Homo sapiens, UniProt Q15910); assay: EZH2 inhibition assay (Reaction Biology Corp.); format: biochemical; details: for IC50: 10-dose IC50 mode, 3-fold serial dilution starting at 10 μM, single experiment
Method: The EZH2 inhibitory ability of the synthesized adduct was assessed by Reaction Biology Corporation Malvern, PA. (http://www.reactionbiology.com).

[1] = tested on: TMZ-resistant cells (Pt3R); assay: Cell viability CCK8 assay; format: cell-based, human; details: 72 h; for IC50: Homo sapiens, CCK8, read-out: IC50, cell growth inhibitory effects
Text: The CCK8 reagent was purchased from TargetMOI (Wellesley Hills, MA) and used according to the manufacturer’s instruction.

HSP90a = HSP90a (Homo sapiens, UniProt P07900); assay: In vitro Hsp90 assay (Reaction Biology Corp.); format: biochemical; details: for IC50: 10-dose IC50 mode, 3-fold serial dilution starting at 10 μM, single experiment, '-' read as no inhibition
Method: The HSP90 inhibitory activity of the synthesized adduct was assessed by Reaction Biology Corporation Malvern, PA. (http://www.reactionbiology.com).

Pt#3-R-induced tumor = assay: In vivo anti-GBM efficacy, Pt3R xenograft; details: intraperitoneally twice per week; TAZ 10 or 20 mg/kg; STA+TAZ 5+5, 10+10, 15+15 mg/kg
Method: In vivo anti-GBM efficacy of compound 7 was also evaluated in this study. For the in vivo study, experimental NOD.CB17-Prkdc^scid/NCrCrl mice (8-week-old) were used and Pt3R cells (1 × 10^6) in 50 μL Dulbecco’s modified Eagle’s medium (DMEM) were injected into the back of mice. After 10 days, the tumor was detectable. […] In a nutshell, the outcome of the in vivo study ascertains that the remarkable in vitro anti-GBM activity profile of dual inhibitor 7 was translated to the in vivo potential.
Animal experiments were approved by the institutional animal care and use committee of Taipei Medical University (IACUC: LAC2022-0288). Male NOD.CB17-Prkdc^scid/NCrCrl mice (8-week-old) were purchased from BioLASCO Taiwan Co., Ltd. (Taipei, Taiwan). Pt3R cells (1 × 10^6) in 50 μL of DMEM were injected into the back of mice. Experimental mice were grouped as follows (Figure 11): DMSO (n = 5), C7–10 mg/kg (n = 4), C7–20 mg/kg (n = 6), TAZ-10 mg/kg (n = 6), TAZ-20 mg/kg (n = 8), STA-5+TAZ-5 mg/kg (n = 7), STA-10+TAZ-10 mg/kg (n = 7) and STA-15+TAZ-15 mg/kg (n = 7). After 10 days, the tumor was touchable. Mice were injected intraperitoneally with DMSO (the control group) or compounds twice per week.

Sequence of EZH2 (Q15910 whole entry): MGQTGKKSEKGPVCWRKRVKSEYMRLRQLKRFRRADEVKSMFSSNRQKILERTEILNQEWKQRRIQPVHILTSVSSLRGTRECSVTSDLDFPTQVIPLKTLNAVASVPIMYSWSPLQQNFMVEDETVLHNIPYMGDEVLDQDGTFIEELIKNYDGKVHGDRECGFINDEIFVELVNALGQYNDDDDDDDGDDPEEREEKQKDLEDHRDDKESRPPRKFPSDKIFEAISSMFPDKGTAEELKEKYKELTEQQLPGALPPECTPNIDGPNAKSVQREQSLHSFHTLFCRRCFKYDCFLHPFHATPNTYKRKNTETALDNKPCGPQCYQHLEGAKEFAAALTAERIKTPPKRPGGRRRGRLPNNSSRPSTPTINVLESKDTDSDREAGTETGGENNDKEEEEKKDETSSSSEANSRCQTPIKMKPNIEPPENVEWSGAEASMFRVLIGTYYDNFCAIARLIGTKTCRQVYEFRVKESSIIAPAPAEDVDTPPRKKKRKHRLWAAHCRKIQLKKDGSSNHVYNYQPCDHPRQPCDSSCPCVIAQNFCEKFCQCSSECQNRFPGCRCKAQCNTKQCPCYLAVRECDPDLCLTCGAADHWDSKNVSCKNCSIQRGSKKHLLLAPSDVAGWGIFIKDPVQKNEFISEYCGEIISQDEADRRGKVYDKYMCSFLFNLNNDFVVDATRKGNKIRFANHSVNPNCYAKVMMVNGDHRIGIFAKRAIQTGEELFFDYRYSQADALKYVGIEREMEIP
Sequence of EZH2 (O75530 whole entry partner): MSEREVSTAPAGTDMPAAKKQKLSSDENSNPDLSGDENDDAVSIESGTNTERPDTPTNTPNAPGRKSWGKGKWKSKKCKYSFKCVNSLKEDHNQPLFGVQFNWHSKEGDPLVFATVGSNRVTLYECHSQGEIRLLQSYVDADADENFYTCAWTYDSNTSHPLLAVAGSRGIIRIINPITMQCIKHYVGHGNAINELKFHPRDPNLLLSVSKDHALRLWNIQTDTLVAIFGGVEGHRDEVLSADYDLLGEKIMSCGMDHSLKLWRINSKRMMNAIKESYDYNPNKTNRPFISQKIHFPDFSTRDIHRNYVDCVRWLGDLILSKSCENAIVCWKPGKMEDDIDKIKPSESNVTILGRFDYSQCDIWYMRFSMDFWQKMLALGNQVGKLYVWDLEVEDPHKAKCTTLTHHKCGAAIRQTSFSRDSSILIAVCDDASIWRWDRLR
Sequence of EZH2 (Q15022 whole entry partner): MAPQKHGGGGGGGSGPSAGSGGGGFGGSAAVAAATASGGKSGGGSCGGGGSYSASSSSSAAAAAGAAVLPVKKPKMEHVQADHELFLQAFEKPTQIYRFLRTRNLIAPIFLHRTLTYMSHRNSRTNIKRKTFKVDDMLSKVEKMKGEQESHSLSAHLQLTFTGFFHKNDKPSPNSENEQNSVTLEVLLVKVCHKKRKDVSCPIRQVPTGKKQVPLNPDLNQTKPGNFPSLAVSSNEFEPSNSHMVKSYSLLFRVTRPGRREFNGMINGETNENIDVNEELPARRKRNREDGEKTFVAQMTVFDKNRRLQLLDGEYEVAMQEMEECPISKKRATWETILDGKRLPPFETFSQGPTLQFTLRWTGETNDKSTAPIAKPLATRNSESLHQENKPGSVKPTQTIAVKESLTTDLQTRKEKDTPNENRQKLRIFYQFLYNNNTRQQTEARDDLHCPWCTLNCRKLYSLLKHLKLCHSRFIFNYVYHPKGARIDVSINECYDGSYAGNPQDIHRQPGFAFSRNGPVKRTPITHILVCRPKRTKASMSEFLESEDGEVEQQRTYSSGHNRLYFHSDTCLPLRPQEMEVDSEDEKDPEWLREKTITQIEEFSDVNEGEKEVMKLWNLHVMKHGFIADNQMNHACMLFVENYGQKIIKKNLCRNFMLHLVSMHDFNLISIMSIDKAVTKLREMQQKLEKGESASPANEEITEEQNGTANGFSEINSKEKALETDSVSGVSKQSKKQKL
Sequence of EZH2 (Q09028 whole entry partner): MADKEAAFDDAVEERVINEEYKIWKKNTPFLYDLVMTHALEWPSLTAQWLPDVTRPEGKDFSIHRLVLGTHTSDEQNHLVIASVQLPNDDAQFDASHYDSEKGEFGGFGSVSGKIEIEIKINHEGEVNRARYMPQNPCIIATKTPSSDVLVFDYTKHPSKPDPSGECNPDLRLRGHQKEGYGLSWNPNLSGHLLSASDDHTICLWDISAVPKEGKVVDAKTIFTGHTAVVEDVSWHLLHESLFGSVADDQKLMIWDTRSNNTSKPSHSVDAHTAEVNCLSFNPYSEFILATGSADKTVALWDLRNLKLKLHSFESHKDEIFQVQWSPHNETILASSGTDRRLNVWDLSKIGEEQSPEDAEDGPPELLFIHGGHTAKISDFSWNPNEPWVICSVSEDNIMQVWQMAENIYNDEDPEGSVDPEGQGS
Sequence of EZH2 (Q6ZN18 whole entry partner): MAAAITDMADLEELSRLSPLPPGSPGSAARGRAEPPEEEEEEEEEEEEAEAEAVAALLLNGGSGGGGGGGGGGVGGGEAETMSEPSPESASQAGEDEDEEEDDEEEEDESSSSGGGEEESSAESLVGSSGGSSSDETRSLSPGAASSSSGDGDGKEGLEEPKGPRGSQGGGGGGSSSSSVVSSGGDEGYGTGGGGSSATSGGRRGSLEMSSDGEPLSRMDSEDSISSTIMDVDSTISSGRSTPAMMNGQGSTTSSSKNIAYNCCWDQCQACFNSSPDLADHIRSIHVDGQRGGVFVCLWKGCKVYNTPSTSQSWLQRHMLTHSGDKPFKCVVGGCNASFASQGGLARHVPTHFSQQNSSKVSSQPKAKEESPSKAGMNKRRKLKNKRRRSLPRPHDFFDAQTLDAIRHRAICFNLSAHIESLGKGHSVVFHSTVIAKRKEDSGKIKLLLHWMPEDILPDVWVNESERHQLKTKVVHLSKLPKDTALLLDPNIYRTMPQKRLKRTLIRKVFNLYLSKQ

| SMILES | IC50 (EZH2) [nM] | cell growth inhibitory effects (in words) [1] | HSP90 inhibitory potential (in words) (HSP90a) | fold more potent in inhibiting EZH2 than counterpart 1 (EZH2; compound 2 vs 1) [fold] | IC50 [1] [µM] | IC50 (HSP90a) [nM] | tumor growth (Pt#3-R-induced tumor) |
| --- | --- | --- | --- | --- | --- | --- | --- |
| CCN(c1cc(-c2ccc(NC(=O)c3cc(C(C)C)c(O)cc3O)cc2)cc(C(=O)NCc2c(C)cc(C)[nH]c2=O)c1C)C1CCOCC1 [Compound 1, 4′-(2,4-Fihydroxy-5-isopropylbenzamido)-N-((4,6-dimethyl-2-oxo-1,2-dihydropyridin-3-yl)methyl)-5-(ethyl(tetrahydro-2H-pyran-4-yl)amino)-4-methyl-[1,1′-biphenyl]-3-carboxamide] | 6.14 | unable to exert cell growth inhibitory effects | devoid of HSP90 inhibitory potential |  |  |  |  |
| CCN(c1cc(-c2cccc(NC(=O)c3cc(C(C)C)c(O)cc3O)c2)cc(C(=O)NCc2c(C)cc(C)[nH]c2=O)c1C)C1CCOCC1 [Compound 2, 3′-(2,4-Fihydroxy-5-isopropylbenzamido)-N-((4,6-dimethyl-2-oxo-1,2-dihydropyridin-3-yl)methyl)-5-(ethyl(tetrahydro-2H-pyran-4-yl)amino)-4-methyl-[1,1′-biphenyl]-3-carboxamide] | 2.06 | unable to exert cell growth inhibitory effects | devoid of HSP90 inhibitory potential | 3 |  |  |  |
| CCN(c1cc(-c2ccc(N(C)C(=O)c3cc(C(C)C)c(O)cc3O)cc2)cc(C(=O)NCc2c(C)cc(C)[nH]c2=O)c1C)C1CCOCC1 [Compound 3, 4′-(2,4-Dihydroxy-5-isopropyl-N-methylbenzamido)-N-((4,6-dimethyl-2-oxo-1,2-dihydropyridin-3-yl)methyl)-5-(ethyl(tetrahydro-2H-pyran-4-yl)amino)-4-methyl-[1,1′-biphenyl]-3-carboxamide] | 7.21 |  |  |  | 27.4 ± 1.58 | 343 |  |
| CCN(C(=O)c1cc(C(C)C)c(O)cc1O)c1ccc(-c2cc(C(=O)NCc3c(C)cc(C)[nH]c3=O)c(C)c(N(CC)C3CCOCC3)c2)cc1 [Compound 4, N-((4,6-Dimethyl-2-oxo-1,2-dihydropyridin-3-yl)methyl)-5-(ethyl(tetrahydro-2H-pyran-4-yl)amino)-4′-(N-ethyl-2,4-dihydroxy-5-isopropylbenzamido)-4-methyl-[1,1′-biphenyl]-3-carboxamide] | 7.35 |  |  |  |  | 823 |  |
| CCCN(C(=O)c1cc(C(C)C)c(O)cc1O)c1ccc(-c2cc(C(=O)NCc3c(C)cc(C)[nH]c3=O)c(C)c(N(CC)C3CCOCC3)c2)cc1 [Compound 5, 4′-(2,4-Dihydroxy-5-isopropyl-N-propylbenzamido)-N-((4,6-dimethyl-2-oxo-1,2-dihydropyridin-3-yl)methyl)-5-(ethyl(tetrahydro-2H-pyran-4-yl)amino)-4-methyl-[1,1′-biphenyl]-3-carboxamide] | 21.8 |  |  |  |  |  |  |
| CCN(c1cc(-c2ccc(N(Cc3ccccc3)C(=O)c3cc(C(C)C)c(O)cc3O)cc2)cc(C(=O)NCc2c(C)cc(C)[nH]c2=O)c1C)C1CCOCC1 [Compound 6, 4′-(N-Benzyl-2,4-dihydroxy-5-isopropylbenzamido)-N-((4,6-dimethyl-2-oxo-1,2-dihydropyridin-3-yl)methyl)-5-(ethyl(tetrahydro-2H-pyran-4-yl)amino)-4-methyl-[1,1′-biphenyl]-3-carboxamide] | 11.7 |  |  |  |  | > 10000 |  |
| CCN(C(=O)c1cc(C(C)C)c(O)cc1O)c1cccc(-c2cc(C(=O)NCc3c(C)cc(C)[nH]c3=O)c(C)c(N(CC)C3CCOCC3)c2)c1 [Compound 8, N-((4,6-Dimethyl-2-oxo-1,2-dihydropyridin-3-yl)methyl)-5-(ethyl(tetrahydro-2H-pyran-4-yl)amino)-3′-(N-ethyl-2,4-dihydroxy-5-isopropylbenzamido)-4-methyl-[1,1′-biphenyl]-3-carboxamide] | 36.6 |  |  |  | 10.8 ± 1 | 63.6 |  |
| CCCN(C(=O)c1cc(C(C)C)c(O)cc1O)c1cccc(-c2cc(C(=O)NCc3c(C)cc(C)[nH]c3=O)c(C)c(N(CC)C3CCOCC3)c2)c1 [Compound 9, 3′-(2,4-Dihydroxy-5-isopropyl-N-propylbenzamido)-N-((4,6-dimethyl-2-oxo-1,2-dihydropyridin-3-yl)methyl)-5-(ethyl(tetrahydro-2H-pyran-4-yl)amino)-4-methyl-[1,1′-biphenyl]-3-carboxamide] | 40.1 | unable to exert cell growth inhibitory effects |  |  |  | 9330 |  |
| CCN(c1cc(-c2cccc(N(Cc3ccccc3)C(=O)c3cc(C(C)C)c(O)cc3O)c2)cc(C(=O)NCc2c(C)cc(C)[nH]c2=O)c1C)C1CCOCC1 [Compound 10, 3′-(N-Benzyl-2,4-dihydroxy-5-isopropylbenzamido)-N-((4,6-dimethyl-2-oxo-1,2-dihydropyridin-3-yl)methyl)-5-(ethyl(tetrahydro-2H-pyran-4-yl)amino)-4-methyl-[1,1′-biphenyl]-3-carboxamide] | 641 | unable to exert cell growth inhibitory effects |  |  |  | 2840 |  |
| CCN(c1cc(-c2ccc(CN3CCOCC3)cc2)cc(C(=O)NCc2c(C)cc(C)[nH]c2=O)c1C)C1CCOCC1 [Tazemetostat, reference compound] |  | unable to exert cell growth inhibitory effects |  |  |  |  | failed to suppress tumor growth |
